Data reported in ChEMBL document CHEMBL1137489, “Inhibition of choline transport by redox-active cholinomimetic bis-catechol reagents” (Bioorg Med Chem, 2007).
Active and inactive are the calls of the source. The rule behind the calls is not given here.

Assays:
[1] = Inhibition of C57BL/6 mouse synaptosomal choline transporter; set-up: species or system C57BL6
Mus musculus = species: Mus musculus; test: Inhibition of C57BL/6 mouse nicotinic acetyl choline receptor; details: C57BL6

SMILES	IC50 [1]	Ki [1]	Activity (Mus musculus)
C[N+](C)(CCCCCC[N+](C)(C)Cc1cccc(O)c1O)Cc1cccc(O)c1O	76 µM	73 µM	Active
C[N+](C)(CCCCCCCCCC[N+](C)(C)Cc1cccc(O)c1O)Cc1cccc(O)c1O	21 µM	31 µM	Active
C[N+](C)(C)CCCCCCCCCC[N+](C)(C)C [DECAMETHONIUM]	1.5 µM		
C[N+](C)(C)CCCCCC[N+](C)(C)C [HEXAMETHONIUM CHLORIDE]	130 µM		
